# According to patent US20250340557A1, “PYRIMIDINE DERIVATIVE” (ASKA PHARMACEUTICAL CO., LTD., priority 2022, published 2025):
# Target: T1, human mPGES-1 (Homo sapiens, UniProt O14684)
# T1 construct: made in house; host or cells: COS-1 cells (transient transfection; microsomal fraction used as enzyme)
# T1 sequence (O14684 1-152): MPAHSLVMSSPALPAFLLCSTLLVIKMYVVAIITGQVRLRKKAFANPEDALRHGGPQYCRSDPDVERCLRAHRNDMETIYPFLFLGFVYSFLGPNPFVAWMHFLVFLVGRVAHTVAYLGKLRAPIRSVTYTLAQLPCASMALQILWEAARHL
# Assay: Test for mPGES-1 inhibitory activity (microsomal enzyme, PGE2 EIA)
# Type: biochemical
# Conditions: microsomes from COS-1 cells transfected with human mPGES-1 cDNA; substrate PGH2 1 μM; 4° C., 4 minutes; PGE2 measured by EIA; read-out: h mPGES1 IC50
# Method in brief: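 Enzyme source was microsomes from COS-1 cells transiently expressing human mPGES-1, in sodium phosphate pH 7.2 with 2.5 mM GSH, 1 mM EDTA and 2% DMSO final. After a 15 min preincubation with compound at 4 °C, 1 μM PGH2 (final) reacted for 4 min at 4 °C.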
row,IC50 [nM],Structure (SMILES)
1,< 1,"Cc1nc(-c2c(C(F)(F)F)ccc(CNC(=O)[C@H]3CC[C@H](OCc4cc(F)cc(Cl)c4)CC3)c2F)[nH]c(=O)c1F [Example 131, trans-4-[(3-chloro-5-fluorobenzyl)oxy]-N-[2-fluoro-3-(5-fluoro-4-methyl-6-oxo-1,6-dihydropyrimidin-2-yl)-4-(trifluoromethyl)benzyl]cyclohexane-1-carboxamide]"
2,< 1,"Cc1cnc2ccc(N3CCC(C(=O)NCc4ccc(C(F)(F)F)c(-c5nc(C(F)(F)F)cc(=O)[nH]5)c4F)CC3)nn12 [Example 3, N-{2-fluoro-3-[6-oxo-4-(trifluoromethyl)-1,6-dihydropyrimidin-2-yl]-4-(trifluoromethyl)benzyl}-1-(3-methylimidazo[1,2-b]pyridazin-6-yl)piperidine-4-carboxamide]"
3,7.8,"O=C(NCc1ccc(C(F)(F)F)c(-c2nc(C(F)(F)F)cc(=O)[nH]2)c1F)C1(F)CCN(c2ccc(C(F)(F)F)cn2)CC1 [Example 38, 4-fluoro-N-{2-fluoro-3-[6-oxo-4-(trifluoromethyl)-1,6-dihydropyrimidin-2-yl]-4-(trifluoromethyl)benzyl}-1-[5-(trifluoromethyl)pyridin-2-yl]piperidine-4-carboxamide]"
4,< 1,"Cc1nc(-c2c(C(F)(F)F)ccc(CNC(=O)C3CCN(c4ccc(OC(F)(F)F)cc4)CC3)c2F)[nH]c(=O)c1F [Example 72, N-[2-fluoro-3-(5-fluoro-4-methyl-6-oxo-1,6-dihydropyrimidin-2-yl)-4-(trifluoromethyl)benzyl]-1-[4-(trifluoromethoxy)phenyl]piperidine-4-carboxamide]"
5,< 1,"Cc1cc(=O)[nH]c(-c2c(C(F)(F)F)ccc(CNC(=O)[C@H]3CC[C@H](OCc4cc(F)cc(Cl)c4)CC3)c2F)n1 [Example 122, trans-4-[(3-chloro-5-fluorobenzyl)oxy]-N-[2-fluoro-3-(4-methyl-6-oxo-1,6-dihydropyrimidin-2-yl)-4-(trifluoromethyl)benzyl]cyclohexane-1-carboxamide]"
6,11,"Cc1cc(=O)[nH]c(-c2c(C(F)(F)F)ccc(CNC(=O)[C@H]3CC[C@H](OCc4cc(F)cc(F)c4)CC3)c2F)n1 [Example 120, trans-4-[(3,5-difluorobenzyl)oxy]-N-[2-fluoro-3-(4-methyl-6-oxo-1,6-dihydropyrimidin-2-yl)-4-(trifluoromethyl)benzyl]cyclohexane-1-carboxamide]"
7,0.87,"Cc1ccc(N2CCC(C(=O)NCc3ccc(C(F)(F)F)c(-c4nc(C(F)(F)F)cc(=O)[nH]4)c3F)CC2)cc1 [Example 61, N-{2-fluoro-3-[6-oxo-4-(trifluoromethyl)-1,6-dihydropyrimidin-2-yl]-4-(trifluoromethyl)benzyl}-1-(4-methylphenyl)piperidine-4-carboxamide]"
8,15,"O=C(NCc1ccc(C(F)(F)F)c(-c2nc(C(F)(F)F)cc(=O)[nH]2)c1F)C1CCN(c2ccc(OC(F)(F)F)cn2)CC1 [Example 40, N-{2-fluoro-3-[6-oxo-4-(trifluoromethyl)-1,6-dihydropyrimidin-2-yl]-4-(trifluoromethyl)benzyl}-1-[5-(trifluoromethoxy)pyridin-2-yl]piperidine-4-carboxamide]"
9,< 1,"O=C(NCc1ccc(C(F)(F)F)c(-c2nc(C(F)(F)F)cc(=O)[nH]2)c1F)C1CCN(c2ncc(Cl)cc2Cl)CC1 [Example 30, 1-(3,5-dichloropyridin-2-yl)-N-{2-fluoro-3-[6-oxo-4-(trifluoromethyl)-1,6-dihydropyrimidin-2-yl]-4-(trifluoromethyl)benzyl}piperidine-4-carboxamide]"

# Same assay, conditions: microsomes of COS-1 cells transfected with human mPGES-1 cDNA; PGH2 1 μM; 4° C., 4 minutes; PGE2 by EIA; read-out: h mPGES1 IC50
row,IC50 [nM],Structure (SMILES)
1,< 1,"Cc1cc(=O)[nH]c(-c2c(C(F)(F)F)ccc(CNC(=O)[C@H]3C[C@H](OCc4cccc(Cl)c4)C3)c2F)n1 [Example 179, trans-3-[(3-chlorobenzyl)oxy]-N-[2-fluoro-3-(4-methyl-6-oxo-1,6-dihydropyrimidin-2-yl)-4-(trifluoromethyl)benzyl]cyclobutane-1-carboxamide]"
2,< 1,"O=c1cc(C(F)F)nc(-c2c(C(F)(F)F)ccc(CNC(=O)[C@H]3C[C@H](OCc4cccc(F)c4)C3)c2F)[nH]1 [Example 171, trans-N-{3-[4-(difluoromethyl)-6-oxo-1,6-dihydropyrimidin-2-yl]-2-fluoro-4-(trifluoromethyl)benzyl}-3-[(3-fluorobenzyl)oxy]cyclobutane-1-carboxamide]"
3,8.6,"Cc1nc(-c2c(C(F)(F)F)ccc(CNC(=O)[C@H]3C[C@H](OCc4ccc(Cl)cc4)C3)c2F)[nH]c(=O)c1F [Example 214, trans-3-[(4-chlorobenzyl)oxy]-N-[2-fluoro-3-(5-fluoro-4-methyl-6-oxo-1,6-dihydropyrimidin-2-yl)-4-(trifluoromethyl)benzyl]cyclobutane-1-carboxamide]"
4,< 1,"CCc1cc(=O)[nH]c(-c2c(C(F)(F)F)ccc(CNC(=O)[C@H]3C[C@H](OCc4cccc(Cl)c4)C3)c2F)n1 [Example 196, trans-3-[(3-chlorobenzyl)oxy]-N-[3-(4-ethyl-6-oxo-1,6-dihydropyrimidin-2-yl)-2-fluoro-4-(trifluoromethyl)benzyl]cyclobutane-1-carboxamide]"
5,35,"O=C(NCc1ccc(C(F)(F)F)c(-c2nc(C(F)(F)F)cc(=O)[nH]2)c1F)C1CCN(CCc2ccccc2)CC1 [Example 278, N-{2-fluoro-3-[6-oxo-4-(trifluoromethyl)-1,6-dihydropyrimidin-2-yl]-4-(trifluoromethyl)benzyl}-1-phenethylpiperidine-4-carboxamide]"
6,< 1,"O=c1cc(C(F)F)nc(-c2c(C(F)(F)F)ccc(CNC(=O)[C@H]3C[C@H](OCc4cc(Cl)ccc4F)C3)c2F)[nH]1 [Example 175, trans-3-[(5-chloro-2-fluorobenzyl)oxy]-N-{3-[4-(difluoromethyl)-6-oxo-1,6-dihydropyrimidin-2-yl]-2-fluoro-4-(trifluoromethyl)benzyl}cyclobutane-1-carboxamide]"
7,1.7,"Cc1cc(=O)[nH]c(-c2c(C(F)(F)F)ccc(CNC(=O)[C@H]3C[C@H](OCc4ccc(Cl)cc4)C3)c2F)n1 [Example 180, trans-3-[(4-chlorobenzyl)oxy]-N-[2-fluoro-3-(4-methyl-6-oxo-1,6-dihydropyrimidin-2-yl)-4-(trifluoromethyl)benzyl]cyclobutane-1-carboxamide]"
8,< 1,"CCc1nc(-c2c(C(F)(F)F)ccc(CNC(=O)[C@H]3C[C@H](OCc4ccc(F)c(F)c4)C3)c2F)[nH]c(=O)c1F [Example 237, trans-3-[(3,4-difluorobenzyl)oxy]-N-[3-(4-ethyl-5-fluoro-6-oxo-1,6-dihydropyrimidin-2-yl)-2-fluoro-4-(trifluoromethyl)benzyl]cyclobutane-1-carboxamide]"
9,< 1,"O=c1cc(C(F)F)nc(-c2c(C(F)(F)F)ccc(CNC(=O)[C@H]3C[C@H](OCc4ccc(F)c(F)c4)C3)c2F)[nH]1 [Example 169, trans-3-[(3,4-difluorobenzyl)oxy]-N-{3-[4-(difluoromethyl)-6-oxo-1,6-dihydropyrimidin-2-yl]-2-fluoro-4-(trifluoromethyl)benzyl}cyclobutane-1-carboxamide]"
10,< 1,"O=c1cc(C(F)(F)F)nc(-c2c(C(F)(F)F)ccc(CNC(=O)[C@H]3C[C@H](OCc4cc(F)cc(F)c4)C3)c2F)[nH]1 [Example 151, trans-3-[(3,5-difluorobenzyl)oxy]-N-{2-fluoro-3-[6-oxo-4-(trifluoromethyl)-1,6-dihydropyrimidin-2-yl]-4-(trifluoromethyl)benzyl}cyclobutane-1-carboxamide]"
11,< 1,"O=c1cc(C(F)(F)F)nc(-c2c(C(F)(F)F)ccc(CNC(=O)[C@H]3C[C@@H](OCc4cc(F)cc(Cl)c4)C3)c2F)[nH]1 [Example 160, cis-3-[(3-chloro-5-fluorobenzyl)oxy]-N-{2-fluoro-3-[6-oxo-4-(trifluoromethyl)-1,6-dihydropyrimidin-2-yl]-4-(trifluoromethyl)benzyl}cyclobutane-1-carboxamide]"
12,15,"Cc1nc(-c2c(C(F)(F)F)ccc(CNC(=O)[C@H]3C[C@H](OCc4ccc(Cl)cc4F)C3)c2F)[nH]c(=O)c1F [Example 219, trans-3-[(4-chloro-2-fluorobenzyl)oxy]-N-[2-fluoro-3-(5-fluoro-4-methyl-6-oxo-1,6-dihydropyrimidin-2-yl)-4-(trifluoromethyl)benzyl]cyclobutane-1-carboxamide]"
13,8.8,"O=c1cc(C(F)F)nc(-c2c(C(F)(F)F)ccc(CNC(=O)[C@H]3C[C@H](OCc4ccc(C(F)(F)F)cc4)C3)c2F)[nH]1 [Example 166, trans-N-{3-[4-(difluoromethyl)-6-oxo-1,6-dihydropyrimidin-2-yl]-2-fluoro-4-(trifluoromethyl)benzyl}-3-{[4-(trifluoromethyl)benzyl]oxy}cyclobutane-1-carboxamide]"
14,7.9,"CCc1cc(=O)[nH]c(-c2c(C(F)(F)F)ccc(CNC(=O)[C@H]3C[C@H](OCc4ccc(F)c(Cl)c4)C3)c2F)n1 [Example 210, trans-3-[(3-chloro-4-fluorobenzyl)oxy]-N-[3-(4-ethyl-6-oxo-1,6-dihydropyrimidin-2-yl)-2-fluoro-4-(trifluoromethyl)benzyl]cyclobutane-1-carboxamide]"

row,Structure (SMILES),IC50 [nM]
1,"CC(C)CO[C@H]1C[C@@H](C(=O)NCc2ccc(C(F)(F)F)c(-c3nc(C(F)(F)F)cc(=O)[nH]3)c2F)C1 [Example 257, cis-N-{2-fluoro-3-[6-oxo-4-(trifluoromethyl)-1,6-dihydropyrimidin-2-yl]-4-(trifluoromethyl)benzyl}-3-isobutoxycyclobutane-1-carboxamide]",5.8
